How the values were obtained:
HBV cccDNA = test: HBV-infected HepG2-NTCP cells incubated with exosomes packaged with gRNA/Cas9 RNPs, HBV cccDNA; format: cell-based, Hepatitis B virus (HBV); conditions: delivery by engineered exosomes, 3 days (1×10^8 particles packaged with 40 μM gRNA/Cas9 RNPs)
Protocol: HepG2-NTCP cells were infected for 6 days with the supernatants of HepDE19 cells. Next, HepG2-NTCP cells were transfected for 3 days with gRNA5, gRNA9, gRNA5+gRNA9, or gRNAc RNPs (FIG. 4A) or incubated with exosomes carrying gRNA5, gRNA9, gRNA5+gRNA9, or gRNAc RNPs (1×10^8 particles packaged with 40 μM gRNA/Cas9 RNPs) (FIG. 4B), followed by measuring HBV cccDNA.
To test whether the synthetic gRNA/Cas9 can reduce newly formed HBV cccDNA in HepG2-NTCP cells, the cells with HBV particle-containing supernatants from HepDE19 cells (supernatants harvested 6 days after culture in Tet-free media) were infected. The HepG2-NTCP cells were infected with HBV particles for 6 days and then transfected with gRNA5, gRNA9, gRNA5 plus gRNA9 (in combination), or gRNAc RNPs for 3 days, followed by measuring HBV cccDNA. In another experiment, the infected HepG2-NTCP cells were incubated for 3 days with exosomes packaged with gRNA5, gRNA9, gRNA5 plus gRNA9 (in combination), or gRNAc RNPs, followed by measuring HBV cccDNA.

[1] = test system: HBV replication in HepDE19 cells; test: Suppression of HBV replication in HepDE19 cells by synthetic gRNA/Cas9 RNPs, one-time transfection (ELISA, real-time PCR, RNAscope); format: cell-based, Hepatitis B virus (HBV); conditions: Tet-free medium 3 days; for HBV mRNA / HBV RNA level (RNAscope) / cccDNA level / pgRNA level / total HBV DNA level: HepDE19 cells, vs gRNAc; for cccDNA level: one-time transfection; for cccDNA level / pgRNA level / total HBV DNA level: real-time PCR; for HBeAg level / HBsAg level: HepDE19 supernatant, ELISA, vs scrambled gRNAc
Protocol: The HepDE19 cell line is tetracycline-controlled HBV stable cells maintained in the presence of 500 μg/ml G418 and 1 μg/ml tetracycline (Tet). Upon withdrawing Tet from the culture fluid of HepDE19 cells, pgRNA transcription, HBV DNA replication, cccDNA formation, and HBV e antigen (HBeAg) production gradually increase in a time-dependent manner. To induce HBV replication, the cells were cultured in a Tet-free medium for 0-10 days, followed by measuring the expression of HBV antigens, HBV cccDNA, and pgRNA using methods previously described. For cell transfection, HepDE19 cells were cultured in Tet-free medium for 2 days. The gRNA/Cas9 RNPs and Lipofectamine CRISPRMAX reagents were prepared in two separate tubes following the manufacturer's instructions. Briefly, 125 ng gRNA, 500 ng GeneArt Platinum Cas9 nuclease, and 1 μl Cas9 Plus reagents were mixed in one tube, and 1.5 μl Lipofectamine CRISPRMAX reagent was added in a separate tube. The gRNA/Cas9 RNP solution was then transferred to the tube containing the Lipofectamine CRISPRMAX solution. The mixture was vortexed and incubated at 25° C. for 10 min to form the gRNA/Cas9 RNP/Lipofectamine CRISPRMAX complex. Meanwhile, HepDE19 cells were seeded in a 24-well plate at 2.0×10^5 cells per well. The gRNA/Cas9 RNP/Lipofectamine CRISPRMAX complex was then added directly to the cell suspension, and the cells were incubated for 72 h, followed by assessing HBV replication with Tet-free medium as described above.
The levels of HBsAg and HBeAg in the supernatants of cell cultures were determined by ELISA (Cat #KA0286 and NBP2-600029, Novus Biologicals, Littleton, CO) according to the manufacturer's protocol. The optical density of antigen levels was measured at 450 nm using a microplate spectrophotometer. The samples were run in triplicate, and the experiments were repeated at least three times.
Total RNA was extracted from the cell pellets by the RNeasy Mini kit (Cat #74104, QIAGEN, Germantown, MD), and 1 μg RNA was converted to cDNA using the Applied Biosystems High-Capacity cDNA Reverse Transcription Kit (Cat #43-688-14, ThermoFisher, Waltham, MA). Quantitative real-time PCR (real-time-qPCR) was performed using iTaq Universal SYBR Green Supermix (Cat #1725124, Bio-Rad, Hercules, CA). The PCR primers were: HBV mRNA forward, 5′-[…]-3′ (SEQ ID NO: 52), reverse, 5′-[…]-3′ (SEQ ID NO: 53); HBV pgRNA forward 5′-[…]-3′ (SEQ ID NO: 54), reverse 5′-[…]-3′ (SEQ ID NO: 55); and GAPDH forward 5′-[…]-3′ (SEQ ID NO: 56), reverse 5′-[…]-3′ (SEQ ID NO: 57). The gene expression levels were determined by the […] method and values were normalized to GAPDH expression as an internal control.
Total and protein-free HBV DNAs were extracted from whole cell lysate using the Hirt DNA method according to a previously published protocol. For HBV cccDNA analysis, the protein-free DNA was treated with 10 units of T5 exonuclease (NEB) at 37° C. for 30 min, followed by 95° C. for 5 min, and diluted 4-fold with nuclease-free water. Next, the cccDNA was cleaned with a DNA clean and concentrator kit (ZYMO Research, Irvine, CA) and used for PCR. HBV total DNA and cccDNA were analyzed by real-time PCR using a TaqMan PCR assay. The primers and probe used to amplify HBV total DNA were: HBV total DNA forward: 5′-[…]-3′ (SEQ ID NO: 58), reverse 5′-[…]-3′ (SEQ ID NO: 59), and internal probe: 5′-FAM-[…]-TAMRA-3′ (SEQ ID NO: 60). The primers and probe used to amplify HBV cccDNA (Genotype D, subtype ayw) were: forward: 5′-[…]-3′ (SEQ ID NO: 61), reverse 5′-[…]-3′ (SEQ ID NO: 62), and internal probe 5′-FAM-[…]-TAMRA-3′ (SEQ ID NO: 63). The PCR reactions were performed in 20 μl volumes and contained 2 μl DNA. The PCR conditions were: 95° C. for 10 min, followed by 45 cycles of 95° C. for 15 s and 64° C. for 30 s. The DNA levels were determined by the […] method and values were normalized to the control group. […]

Row | Sequence | HBV cccDNA levels (HBV cccDNA) | HBV mRNA / HBV RNA level (RNAscope) [1] | cccDNA level [1] | pgRNA level [1] | total HBV DNA level [1] | HBeAg level [1] | HBsAg level [1]
1 | GTTATCGCTGGATGTGTCTGNGG (guide GUUAUCGCUGGAUGUGUCUGNGG; complexed with Cas9 protein, chemistry not fully specified) [gRNA5, tested as synthetic gRNA/Cas9 RNP] | significantly reduced | significant decreases | significant decreases | significant decreases | significant decreases | significant decreases | significant decreases
2 | GGTCTCCATGCGACGTGCAGNGG [gRNA9] | significantly reduced | significant decreases | significant decreases | significant decreases | significant decreases | significant decreases | significant decreases
